In patent publication US20210330611A1, “THERAPY FOR NEUROLOGICAL DISEASES/DISORDERS” (priority 2020, published 2021):
Structures can show the parent of a compound that is named as a salt. Where two headings read alike, the source gives them in different places.

How the values were obtained:
[1] = system: fibrin- and LPS-induced microglia activation; assay: cells; format: cell-based, rat
[2] = system: LPS-induced microglia activation; assay: Image-based assay of LPS-induced microglia activation (HTS and dose response); format: cell-based, rat; conditions: for inhibition at 10 µM: Rattus norvegicus, Microglia, read-out: LPS % inhibition
primary rat microglia [3] = system: primary rat microglia
primary rat microglia [4] = assay: Cell toxicity (dead cells, size <150 μm2) in coated fibrin (cFib) assay; conditions: primary microglia HTS;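 note: share of dead cells sized under 150 µm2 at 10 µM in fibrin-stimulated microglia HTS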
[5] = system: fibrin-induced microglia activation; assay: Image-based assay of fibrin-induced microglia activation (HTS and dose response); format: cell-based, rat; conditions: primary microglia HTS, fibrin stimulation; for inhibition at 10 µM: Rattus norvegicus, Microglia, read-out: Fibrin % inhibition
[6] = quadrant by fibrin and LPS inhibition, HTS at 10 μM
[7] = primary microglia HTS, LPS stimulation, compounds at 10 μM
[8] = fibrin assay, dead cells (size <150 μm2)
[9] = classification by fibrin and LPS inhibition, HTS at 10 μM
[10] = primary microglia HTS, LPS stimulation, compounds at 10 μM, 10 µM
[11] = fibrin assay, dead cells (size <150 μm2), compounds at 10 μM
[12] = classification by fibrin and LPS inhibition in HTS
[13] = fibrin stimulation, cell size <150 μm2 as marker of toxicity
[14] = cell size >800 μm2 as marker of activation

| Compound | Quadrant (FIG. 5b) [1, 6] | inhibition at 10 µM [2, 7] | LPS % cell toxicity (primary rat microglia [3]; rat) | Fibrin % cell toxicity (primary rat microglia [4]; [8]) | inhibition at 10 µM ([5]; compounds at 10 μM) | Quadrant (FIG. 5b) [1, 9] | Fibrin % cell toxicity (primary rat microglia [4]; [11]) | further results |
| --- | --- | --- | --- | --- | --- | --- | --- | --- |
| Cc1ccc(/N=C/N(C)/C=N/c2ccc(C)cc2C)c(C)c1 [Amitraz] | Q4 | 9% | 0% | 0% | -18% |  |  |  |
| CN1C[C@H](C(=O)N[C@]2(C)O[C@@]3(O)[C@@H]4CCCN4C(=O)[C@H](Cc4ccccc4)N3C2=O)C=C2c3cccc4[nH]cc(c34)C[C@H]21 [Ergotamine] |  |  | 0% |  |  | Q4 | 1% | LPS % inhibition [2, 10]: −4%; Fibrin % inhibition ([5]; compounds at 10 μM, 10 µM): 6% |
| C[C@H]1c2cccc(O)c2C(=O)C2=C(O)[C@]3(O)C(=O)C(C(N)=O)=C(O)[C@@H](N(C)C)[C@@H]3[C@@H](O)[C@@H]21 [Doxycycline] |  | 18% | 0% |  | -19% | Q4 | 0% |  |
| CC(=O)NC(Cc1ccccc1)C(=O)O (centres unmarked) [Afalanine] | Q4 | 10% | 0% | 1% | 0% |  |  |  |
| CCOC(=O)c1ccc(O)cc1 [Ethylparaben] |  | 8% | 1% |  | -5% | Q4 | 1% |  |
| CN1CCC(=C2c3ccccc3Sc3ccccc32)CC1 [Pimethixene Maleate] | Q2 | 92% | 2% | 6% | 112% |  |  |  |
| N#CC(c1ccc(Cl)cc1)c1c(Cl)cc(-n2ncc(=O)[nH]c2=O)cc1Cl (centres unmarked) [Diclazuril] |  | 21% | 0% |  | 48% | Q4 | 1% |  |
| O=C(/C=C/C=C/c1ccc2c(c1)OCO2)N1CCCCC1 [Piperine] |  |  | 0% |  |  |  |  | Quadrant (FIG. 5b) [1, 12]: Q4; inhibition at 10 µM ([2]; 48 h): 10%; Fibrin % cell toxicity (primary rat microglia [4]; [13]): 1%; inhibition at 10 µM [5, 14]: -13% |
| O=C(CCCl)NCCc1ccccc1 [Fenaclon] |  | 16% | 0% |  | 8% | Q4 | 1% |  |
| CCC(=O)O[C@](Cc1ccccc1)(c1ccccc1)[C@H](C)CN(C)C [Dextropropoxyphene] |  | 15% | 0% |  | -25% | Q4 | 1% |  |
| CC(=O)NS(=O)(=O)c1ccc(NC(=O)c2ccccc2C(=O)O)cc1 [Phthalylsulfacetamide] |  |  | 0% |  |  |  |  | Quadrant (FIG. 5b) [1, 12]: Q4; inhibition at 10 µM ([2]; 48 h): -1%; Fibrin % cell toxicity (primary rat microglia [4]; [13]): 1%; inhibition at 10 µM [5, 14]: 1% |
| CC(N)C(=O)OC(C)(C)Cc1ccc(Cl)cc1.Cl (centres unmarked) [Alaproclate Hydrochloride, Alaproclate] | Q4 |  |  | 1% |  |  |  | LPS % inhibition [2, 7]: 15%; LPS % cell toxicity (primary rat microglia [3]): 0%; Fibrin % inhibition ([5]; compounds at 10 μM): −7% |
| CCCC(C(=O)OCCN(CC)CC)(c1ccccc1)c1ccccc1.Cl |  |  |  |  |  |  |  | Quadrant (FIG. 5b) [1, 12]: Q4; LPS % inhibition [2]: 5%; LPS % cell toxicity (primary rat microglia [3]): 0%; Fibrin % cell toxicity (primary rat microglia [4]; [13]): 0%; Fibrin % inhibition [5, 14]: −10% |
| CCOc1ccccc1C(N)=O [Ethenzamide] |  | 5% | 0% |  | -15% | Q4 | 1% |  |
| CCCCC(CC)COc1ccc(-c2nc(-c3ccc(OC)cc3)nc(-c3ccc(OCC(CC)CCCC)cc3O)n2)c(O)c1 (centres unmarked) [Bemotrizinol] | Q4 |  |  | 1% |  |  |  | LPS % inhibition [2, 7]: 16%; LPS % cell toxicity (primary rat microglia [3]): 0%; Fibrin % inhibition ([5]; compounds at 10 μM): −23% |
| CC(CCc1ccc(O)cc1)NCCc1ccc(O)c(O)c1 (centres unmarked) [Dobutamine Hydrochloride] |  |  | 0% |  |  | Q4 | 1% | LPS % inhibition [2, 10]: 27%; Fibrin % inhibition ([5]; compounds at 10 μM, 10 µM): 22% |
| CCC[C@H](N[C@@H](C)C(=O)N1[C@H](C(=O)O)C[C@@H]2CCCC[C@@H]21)C(=O)OCC [Perindopril] |  |  | 0% |  |  |  |  | Quadrant (FIG. 5b) [1, 12]: Q4; inhibition at 10 µM ([2]; 48 h): 18%; Fibrin % cell toxicity (primary rat microglia [4]; [13]): 0%; inhibition at 10 µM [5, 14]: -27% |
| CC1(C)C2CCC1(CS(=O)(=O)O)C(=O)C2=Cc1ccc(C=C2C(=O)C3(CS(=O)(=O)O)CCC2C3(C)C)cc1 [Ecamsule] |  |  |  |  |  | Q4 | 1% | LPS % inhibition [2, 7]: 29%; LPS % cell toxicity (primary rat microglia [3]): 0%; Fibrin % inhibition ([5]; compounds at 10 μM): 20% |
| Br.CN1[C@H]2C[C@H](OC(=O)[C@H](CO)c3ccccc3)C[C@@H]1[C@@H](O)C2 [Anisodamine Hydrobromide] | Q4 |  |  | 1% |  |  |  | LPS % inhibition [2, 7]: 4%; LPS % cell toxicity (primary rat microglia [3]): 0%; Fibrin % inhibition ([5]; compounds at 10 μM): −41% |
| CC1(C)C(C=C(Cl)Cl)C1C(=O)OCc1cccc(Oc2ccccc2)c1 (centres unmarked) [Permethrin] |  |  | 0% |  |  |  |  | Quadrant (FIG. 5b) [1, 12]: Q4; inhibition at 10 µM ([2]; 48 h): 11%; Fibrin % cell toxicity (primary rat microglia [4]; [13]): 0%; inhibition at 10 µM [5, 14]: -21% |
| CC1(C)OC(=O)NC1=O [Dimethadione] |  | 14% | 0% |  | -13% | Q4 | 1% |  |
| Eprinomectin |  |  |  |  |  | Q4 | 1% | LPS % inhibition [2, 7]: 8%; LPS % cell toxicity (primary rat microglia [3]): 1%; Fibrin % inhibition ([5]; compounds at 10 μM): −3% |
| NCC(CC(=O)O)c1ccc(Cl)cc1 (racemic) [(±)-baclofen, Baclofen] | Q4 |  |  | 0% |  |  |  | LPS % inhibition [2, 7]: 9%; LPS % cell toxicity (primary rat microglia [3]): 0%; Fibrin % inhibition ([5]; compounds at 10 μM): −8% |
| CCc1oc2ccccc2c1C(=O)c1cc(Br)c(O)c(Br)c1 [Benzbromarone] | Q4 | 24% | 1% | 0% | 0% |  |  |  |
| C[C@@H]1O[C@@H](O[C@@H]2C=C3CC[C@@H]4[C@H](CC[C@]5(C)[C@@H](c6ccc(=O)oc6)CC[C@]45O)[C@@]3(C)CC2)[C@H](O)[C@H](O)[C@H]1O [Proscillaridin] |  |  | 0% |  |  |  |  | Quadrant (FIG. 5b) [1, 12]: Q4; inhibition at 10 µM ([2]; 48 h): 16%; Fibrin % cell toxicity (primary rat microglia [4]; [13]): 1%; inhibition at 10 µM [5, 14]: 8% |
| Cc1cc(=O)n(-c2ccccc2)n1C [Antipyrine] | Q4 | 13% | 1% | 0% | -8% |  |  |  |
| CCCCC[C@H](O)/C=C/[C@@H]1[C@@H](C/C=C\CCCC(=O)O)[C@@H](O)C[C@H]1O [Dinoprost Tromethamine] |  | 15% | 0% |  | 36% | Q4 | 1% |  |
| Cn1c(=O)c2c(ncn2CC(O)CO)n(C)c1=O (centres unmarked) [Dyphylline] |  | -6% | 0% |  | -7% | Q4 | 0% |  |
